Laboratory results published in US20230020329A1, “Annelated 9-hydroxy-1,8-dioxo-1,3,4,8-tetrahydro-2H-pyrido[1,2-a]pyrazine-7-carboxamides as HIV integrase inhibitors, methods of preparation and application thereof” (priority 2019, published 2023).
Values after ≈ are worked out from the molar mass of the structure shown. Where two headings read alike, the source gives them in different places.

Experiments:
[1] = test system: HIV-1 (NL4.3 strain) carrying the GFP reporter gene (NL4.3-GFP); assay: HIV-1 NL4.3-GFP infection of SupT1 cells; format: cell-based; details: Human immunodeficiency virus 1, SUP-T1, read-out: Inhibitory activity (EC50) of HIV-1 (NL4.3 strain) carrying the GFP reporter gene
Description: 6. Inhibitory Activity of HIV-1 (NL4.3 Strain) Carrying the GFP Reporter Gene (NL4.3-GFP) in the SuPT1 Cell Line.
The evaluation was done by RetroVirox Inc. (San Diego, Calif., USA). SupT1 cells were infected with the HIV NL4.3 strain carrying the green fluorescent protein gene (NL4.3-GFP). The virus sample was produced by transfection of 293T cells with proviral DNA. The sample was frozen 48 hours after transfection and stored until use. To enhance the efficiency of infection, a suspension of SupT1 cells was precipitated from the infectious mixture by centrifugation. Test substances were added to the cells immediately before adding the virus. After 2 hours of incubation, the infectious mixture was replaced with a fresh culture medium containing test samples. The effectiveness of the infection was determined after 45 hours by counting the percentage of fluorescent cells in comparison with uninfected cell cultures. The cytotoxicity of the test compounds was determined in parallel on the same, but not infected, SupT1 cell line using the XTT reagent. Serial tenfold dilutions of the samples (starting from 10 μM when determining antiviral activity or from 100 μM for determining cytotoxicity). As a negative control, 0.1% DMSO was used. The values of EC50 were calculated. The quality of the tests was determined using the following controls: signal-to-noise ratio, integrase inhibitor raltegravir (1 μM), and test reproducibility.

[2] = Thermodynamic (shake-flask) solubility; format: physicochemical; details: for solubility at 24 h: thermodynamic from solid
Description: The test compound of general formula 1 or 2 (2 mg) was weighed into a glass vial. The pION universal buffer (0.5 ml) with pH 7.4 or deionized water was added to appropriate vials. The vials were tightly closed with a lid, placed on a rotating shaker, and incubated for 24 hours to balance the solution and the solid phase at the saturation point. Each resulting solution (200 μl) was taken (in duplicate) from the vials, placed in a 96-well MultiScreen Solubility Filter Plate (Millipore), and filtered using vacuum ([…]) into a polypropylene plate with a U-shaped bottom. If necessary, the filtrates were diluted with an appropriate buffer (water). Then, 120 μl of the filtarate (or a diluted filtrate) was transferred to a 96-well plate with a UV-transparent bottom and 60 μl/well of acetonitrile and 20 μl/well of DMSO were added and thoroughly mixed with a multichannel pipette (acetonitrile and DMSO were added to obtain a required composition of calibration standards, as described below). The optical density of the resulting solutions was measured on a multifunction Infinite 200 PRO plate reader in the wavelength range from 240 nm to 400 nm in steps of 10 nm. The value of ODλ for solutions was assessed at a wavelength chosen for plotting a calibration curve.
The concentration of a substance in the solution after the solubility test was evaluated using a calibration curve. A stock solution in DMSO with a concentration of 2 mg/ml was prepared from a separate sample. […] The range of final concentrations of the calibration curve was 0.2; 0.1; 0.05; 0.025; 0.0125; 0.00625, and 0 mg/ml. Calibration solutions were prepared in a 96-well UV plate as follows: 20 μl of a 10-fold stock solution in DMSO, 60 μl of acetonitrile, and 120 μl of the appropriate buffer were added to the well and stirred. The optical density of the resulting solutions was measured on a multifunction Infinite 200 PRO plate reader in the wavelength range from 240 nm to 400 nm with a step of 10 nm. The optimal wavelength typically corresponding to the absorption maximum was chosen, and a linear dependence of OD at a given wavelength on the concentration of the compound was obtained.
The concentration of the compound in the filtrate after the solubility test was calculated according to the formula:
shake-flask solubility=(ODλfiltrate−ODλblank)/(slope×1.67×filtrate dilution)
wherein slope means the slope of the calibration curve; 1.67 is the filtrate acetonitrile+DMSO dilution ratio; filtrate dilution is an additional dilution of the filtrate, if applicable.

[3] = test system: human plasma proteins; assay: Plasma protein binding by equilibrium dialysis, human; format: in vitro ADME; details: for Binding class / Extraction / Permeability: human; for Bound: human plasma diluted to 50%, 37° C.; for Bound / Extraction / Permeability: 1 μM, 4 h; for Permeability: dialysis membrane
Description: To assess protein binding, pooled samples of blood plasma diluted with phosphate buffer up to 50% were used. The test was carried out in a teflon coated 48-well dialysis plate. Each well contained two separate chambers separated by a vertical semipermeable dialysis membrane with 8 kDa pores. A plasma sample with 1 μM of the test compound was placed into one of the chambers, and a buffer solution (pH=7.2) was placed in the other chamber. Over time, at 37° C. while rocking, passive diffusion of the unbound compound occurred and after 4 hours the equilibrium state between the chambers with plasma and the buffer solution was reached. The amount of free fraction was evaluated by HPLC-MS/MS following precipitation of the proteins by acetonitrile. Also, the study involved evaluation of stability of the substance during the 4-hour period and passive permeability through the dialysis membrane in the buffer by mass balance. Warfarin was used as the control compound. The results are presented in Table 4, from which it follows that the compounds of general formula 1.1 have a high degree of binding to human and rat plasma proteins.

[4] = aqueous buffer, pION universal buffer pH 7.4, 24 h, read-out: Solubility, pH 7.4, value

`C[C@H]1CO[C@@H]2Cn3cc(C(=O)NCc4ncc(F)cc4F)c(=O)c(O)c3C(=O)N12` [Compound 1.1.17, (3S,11aR)-6-hydroxy-N-[(3,5-difluoropyridin-2-yl)methyl]-3-methyl-5,7-dioxo-2,3,5,7,11,11a-hexahydro[1,3]oxazolo[3,2-a]pyrido[1,2-d]pyrazine-8-carboxamide] showed an EC50 [1] of 1.5 nM, a solubility at 24 h [2, 4] of 196 µg/mL (≈ 482 µM) and a solubility at 24 h ([2]; deionized water, 24 h, read-out: Solubility, water, value) of 131 µg/mL (≈ 322 µM). The Binding class [3] was “High”, the Bound [3] was 98.8% and the Extraction [3] was 94.6%. The Permeability [3] was 84.8%.
For `C[C@H]1CO[C@@H]2Cn3cc(C(=O)NCc4ccc(F)nc4F)c(=O)c(O)c3C(=O)N12` [Compound 1.1.19, (3S,11aR)-6-hydroxy-N-[(2,6-difluoropyridin-3-yl)methyl]-3-methyl-5,7-dioxo-2,3,5,7,11,11a-hexahydro[1,3]oxazolo[3,2-a]pyrido[1,2-d]pyrazine-8-carboxamide], the EC50 [1] was 1.9 nM, the solubility at 24 h [2, 4] was 232 µg/mL (≈ 571 µM) and the “Solubility, water, value” ([2]; deionized water, 24 h) was 269 µg/mL (≈ 662 µM). For the same compound, the solubility at 24 h ([2]; deionized water, water, read-out: Solubility in water) was 269 µg/mL (≈ 662 µM), the Binding class [3] was “High” and the Bound [3] was 99.0%. It also gave an Extraction [3] of 95.0% and a Permeability [3] of 84.0%.
